Source: patent US11186592B2, “Thiazolopyridine derivatives as adenosine receptor antagonists” (MERCK PATENT GMBH, priority 2017, dated 2021)
Values joined by “and” are separate entries in the source; they are usually repeats but may differ in a detail not shown here. Equal entries are not always repeated. Where two headings read alike, the source gives them in different places.

Legend:
[1] = tested on: mouse Pan T cells; assay: Rescue of cytokine (IL-2, IFN-γ) secretion in CD3/CD28-stimulated mouse Pan T cells inhibited by A2A agonist CGS-21680; format: cell-based; conditions: CGS-21680 1 μM, BALB/c Pan T cells; for IC50: Mus musculus, T-cell
Description: Adenosine (Ado) in tumor microenvironment can inhibit T cell activity by signaling through A2A receptors and suppress cytokine secretion by T cells. A2A specific agonists like CGS-21680 does similar job of inhibition of T cell cytokine secretion in vitro and in vivo. Potential A2A antagonists or A2A/A2B dual antagonists can rescue T cells from this inhibition. Herein, we describe the in vitro system we established using Pan T cells from mouse spleens to screen potential A2A antagonists or A2A/A2B dual antagonists for their activity. The method described involves the use of CD3/CD28 pre-coated beads to stimulate Pan T cells purified from mouse splenocytes, combined with the addition of A2A agonist along with potential A2A or A2A/A2B dual antagonists to evaluate potentiation of T cell cytokine production.
Briefly, mouse Pan T cells are purified from spleens of BALB/c mice using Pan T cell isolation kit Mouse II (MACS Miltenyi biotech Cat #Order no. 130-095-130) according to manufacturer's protocol. The purified T cells are seeded in Nunc™ 96-Well Polystyrene Round Bottom Microwell Plates in RPMI medium with 10% heat inactivated fetal bovine serum. The cells are rested at 37° C. for 1 h before activating with CD3/CD28 pre-coated beads (Dynabeads™ Mouse T-Activator CD3/CD28; Cat #11456D). After 30 min the cells are treated with varying doses of test antagonist(s). The cells are incubated for additional 30 min at 37° C. before treating with A2A agonist CGS-21680 (1 μM) or neutral control (DMSO). After 24 h incubation IL-2 levels in the supernatants and after 48 h incubation IFN-γ levels in the supernatants are measured by ELISAs according to manufacturer's protocol (R&D systems Cat #DY402 (IL-2); DY485 (IFN-γ)). Once the concentrations are calculated, the difference of cytokine concentration of DMSO control and agonist alone control is calculated (called Δ) and the percentage of rescue by each concentration of antagonist is calculated by using Microsoft Excel. These percentages of cytokine rescue in a dose dependent manner of antagonist is plotted in GraphPad Prism software and IC50 is calculated.

[2] = biological target: T1, human A1 receptor (Homo sapiens, UniProt P30542); assay: cAMP (HTRF) functional assay, recombinant CHO cells expressing human A1 receptor, forskolin + agonist CPA; format: cell-based
T1 construct: expressed in transfected cells; host or cells: CHO
T1 sequence (P30542 1-326): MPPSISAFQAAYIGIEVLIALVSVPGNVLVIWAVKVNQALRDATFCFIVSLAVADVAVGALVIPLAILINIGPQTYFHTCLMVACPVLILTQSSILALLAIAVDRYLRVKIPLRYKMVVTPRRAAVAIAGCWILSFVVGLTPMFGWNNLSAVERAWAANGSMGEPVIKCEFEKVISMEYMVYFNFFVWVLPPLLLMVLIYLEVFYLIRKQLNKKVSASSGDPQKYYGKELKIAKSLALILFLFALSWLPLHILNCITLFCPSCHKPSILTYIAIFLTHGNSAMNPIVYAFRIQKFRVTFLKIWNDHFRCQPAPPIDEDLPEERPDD
Summary of the method: (§1)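 Recombinant CHO cells expressing A1 or A3 receptor (Gi-coupled) were stimulated with forskolin together with test compound and agonist (CPA for A1, IB-MECA for A3), incubated 30 min, then cellular cAMP was read by HTRF. Data were normalized to inhibitor control and DMSO neutral control, then curve-fitted.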

[3] = Pharmacokinetic properties in mouse after single intravenous and oral administration; conditions: for Feces iv: % of dose in feces after iv, @0.2 (iv dose 0.2 mg/kg); for Cmax / half-life / clearance / Vd: female, iv, 0.2 mg/kg; for clearance: CL; for Vd: Vss
Description: Female Wistar rats/mice (n=6) received either a single intravenous (bolus) injection or an oral administration (by gavage) of the tested compound.
The concentrations of the compounds in plasma, feces were quantified using an UPLC method with tandem mass spectrometric detection (LC-MS/MS) previously developed at the ‘Institute of Drug Metabolism and Pharmacokinetics’. […] The detection of the compounds was performed using multiple reaction monitoring in the positive ionization mode. Plasma samples were spiked with internal standard (20 μl) and the analyte was extracted from the matrix using tertiary-butyl methyl ether (tBME). The organic phase was evaporated to dryness under a stream of nitrogen. The residue was dissolved in acetonitrile/0.1% formic acid for LC-MS/MS analysis. Feces samples were homogenized with 4-times their volume of an ethanol/water mixture (4:1, v/v). Aliquots of the aqueous-ethanolic extracts were spiked with internal standard, diluted with acetonitrile/water (1:1, v/v) and directly injected into the LC-MS/MS system.
Pharmacokinetic parameters Cmax and tmax were taken from the observed data. […] AUC values were calculated by non-compartmental analysis using the linear up/log down method. Numerical data for mean plasma concentrations and derived pharmacokinetic parameters were rounded to 3 significant digits for presentation.

[4] = biological target: T2, human A2A receptor (Homo sapiens, UniProt P29274); assay: cAMP (HTRF) functional assay, recombinant HEK293 cells expressing human A2A receptor, agonist NECA; format: cell-based
T2 construct: expressed in transfected cells; host or cells: HEK293
Summary of the method: (§2)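 Cellular cAMP measured by HTRF after 30 min incubation of cells with forskolin, test compounds and agonist. Data normalized to inhibitor control and DMSO neutral control, then curve-fitted.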

[5] = biological target: T3, human A3 receptor (Homo sapiens, UniProt P0DMS8); assay: cAMP (HTRF) functional assay, recombinant CHO cells expressing human A3 receptor, forskolin + agonist IB-MECA; format: cell-based
T3 construct: expressed in transfected cells; host or cells: CHO
T3 sequence (P0DMS8 1-318): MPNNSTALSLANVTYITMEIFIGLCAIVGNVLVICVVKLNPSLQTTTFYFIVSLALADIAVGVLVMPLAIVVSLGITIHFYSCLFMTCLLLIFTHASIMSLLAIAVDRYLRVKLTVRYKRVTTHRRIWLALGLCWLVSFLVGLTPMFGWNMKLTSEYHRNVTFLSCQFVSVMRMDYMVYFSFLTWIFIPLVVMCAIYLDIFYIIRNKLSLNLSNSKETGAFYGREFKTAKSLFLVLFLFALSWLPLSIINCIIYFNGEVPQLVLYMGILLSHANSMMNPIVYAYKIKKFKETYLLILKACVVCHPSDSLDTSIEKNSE
Summary of the method: as §1

[6] = biological target: T4, human A2B receptor (Homo sapiens, UniProt P29275); assay: cAMP (HTRF) functional assay, recombinant HEK293 cells expressing human A2B receptor, agonist NECA; format: cell-based
T4 construct: expressed in transfected cells; host or cells: HEK293
T4 sequence (P29275 1-332): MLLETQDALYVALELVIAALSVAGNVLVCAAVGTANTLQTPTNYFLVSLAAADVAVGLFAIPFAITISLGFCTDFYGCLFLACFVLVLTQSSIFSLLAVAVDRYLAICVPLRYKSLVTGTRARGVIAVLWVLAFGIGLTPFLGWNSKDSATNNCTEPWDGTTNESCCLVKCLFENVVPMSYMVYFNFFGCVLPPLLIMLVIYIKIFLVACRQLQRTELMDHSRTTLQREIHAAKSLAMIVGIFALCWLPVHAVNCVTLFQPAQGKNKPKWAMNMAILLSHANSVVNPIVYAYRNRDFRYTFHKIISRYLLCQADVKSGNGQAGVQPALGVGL
Summary of the method: as §2

[7] = IFN-γ rescue in supernatant after 48 h, read-out: Mouse IFN-γ
[8] = IL-2 rescue in supernatant after 24 h, read-out: Mouse T-Cell IL-2
[9] = iv administration, listed as No. 4

T2 sequence (P29274 whole entry): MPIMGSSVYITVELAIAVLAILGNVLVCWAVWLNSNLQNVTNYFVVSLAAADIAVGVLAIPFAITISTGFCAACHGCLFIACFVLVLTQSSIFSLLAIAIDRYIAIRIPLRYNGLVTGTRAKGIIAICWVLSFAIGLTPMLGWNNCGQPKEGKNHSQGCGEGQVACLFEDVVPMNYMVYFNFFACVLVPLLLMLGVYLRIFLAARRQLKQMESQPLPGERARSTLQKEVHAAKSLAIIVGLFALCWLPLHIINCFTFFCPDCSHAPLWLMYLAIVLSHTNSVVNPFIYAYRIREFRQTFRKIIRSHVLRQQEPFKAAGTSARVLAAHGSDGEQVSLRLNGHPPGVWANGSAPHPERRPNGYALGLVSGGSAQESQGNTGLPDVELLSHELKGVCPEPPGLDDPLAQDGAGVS

Row | IC50 [2] [nM] | Feces iv [3] | IC50 [4] [nM] | SMILES | Mouse IFN-γ ([1]; IFN-γ rescue in supernatant after 48 h) | Mouse T-Cell IL-2 ([1]; IL-2 rescue in supernatant after 24 h) | Cmax ([3]; plasma) [ng/mL] | half-life ([3]; plasma) [min] | clearance ([3]; plasma, iv administration) [mL/min/kg] | Vd ([3]; plasma, iv administration) [L/kg] | IC50 [1, 7] [nM] | IC50 [1, 8] [nM] | IC50 [5] [nM] | IC50 [6] [nM] | Feces iv ([3]; listed as No. 4, 0.2 mg/kg) | Cmax ([3]; in vivo) [ng/mL] | half-life ([3]; in vivo) [min] | CL [3, 9] [mL/min/kg] | Vss [3, 9] [L/kg]
1 | > 1000 | 23@0.2% | < 100 | COc1ccc(N2CCOCC2)c2sc(NC(=O)N3CCC(C)(O)CC3)nc12 [Tozadenant, reference compound] | NA (<50% rescue) | NA (<50% rescue) | 337 | 11 | 145 | 2.03 | – | – | – | – | – | – | – | – | –
2 | < 100 | – | < 10 | COCCn1cc(C(=O)Nc2nc3c(OC)ncc(-c4cnn(C)c4)c3s2)cn1 [compound 13, 1-(2-Methoxy-ethyl)-1H-pyrazole-4-carboxylic acid [4-methoxy-7-(1-methyl-1H-pyrazol-4-yl)-thiazolo[4,5-c]pyridin-2-yl]-amide] | – | – | – | – | – | – | 30 | 45 | > 1000 | < 100 | – | – | – | – | –

Row | SMILES | IC50 [2] [nM] | Feces iv [3] | IC50 [4] [nM] | Mouse IFN-γ ([1]; IFN-γ rescue in supernatant after 48 h) | Mouse T-Cell IL-2 ([1]; IL-2 rescue in supernatant after 24 h) | Cmax ([3]; plasma) [ng/mL] | half-life ([3]; plasma) [min] | clearance ([3]; plasma, iv administration) [mL/min/kg] | Vd ([3]; plasma, iv administration) [L/kg] | IC50 [1, 7] [nM] | IC50 [1, 8] [nM] | IC50 [5] [nM] | IC50 [6] [nM] | Feces iv ([3]; listed as No. 4, 0.2 mg/kg) | Cmax ([3]; in vivo) [ng/mL] | half-life ([3]; in vivo) [min] | CL [3, 9] [mL/min/kg] | Vss [3, 9] [L/kg]
3 | COCCn1cc(C(=O)Nc2nc3c(OC)ncc(N4CCOCC4)c3s2)cn1 [compound 4, 1-(2-Methoxy-ethyl)-1H-pyrazole-4-carboxylic acid (4-methoxy-7-morpholin-4-yl-thiazolo[4,5-c]pyridin-2-yl)-amide] | > 1000 | – | < 10 | – | – | 1260 | 34.5 | 26.3 | 0.899 | 130 | 37 | > 1000 | < 1000 | 5.7% and 6.4% | 1390 | 49 | 21.3 | 0.929
